From US20130005696A1, “BUFADIENOLIDE DERIVATIVES, PREPARING PROCESS THEREOF, COMPOSITION COMPRISING THE SAME AND THE USE THEREOF” (priority 2011, published 2013) come the findings set out here.

In assay [1] the test system is human-derived breast carcinoma MDA-MB-231 xenograft. The experiment in a line: Therapeutic effect against MDA-MB-231 xenograft in nude mice. The assay is classed as in vivo, Balb/c nude mice. The settings on record: QOD × 7 d. As for the experimental part: (§1) This experiment is to investigate the in vivo inhibitory effect of II1E-01.HCl on growth of human-derived hepatic carcinoma HepG2 cell, human-derived breast carcinoma MDA-MB-231 cell, human-derived lung carcinoma H460 cell, human-derived colon carcinoma HCT-116 cell, human-derived […] MV-4-11 cell xenografts in nude mice.
(§2) Formulation of solvent control (5% anhydrous ethanol & 5% aqueous glucose solution): 2.5 mL anhydrous ethanol was added into a 50 mL tube, followed by addition of 47.5 mL 5% glucose solution for injection followed by shaking, and stored at room temperature before use.
(§3) Formulation of the preparations of the compounds to be tested: formulations with concentrations of 0.4 mg/mL and 0.6 mg/mL were prepared respectively. An appropriate amount of II1E-01.HCl was weighted and put into a 50 mL tube, followed by addition of corresponding volume of solvent to get the desired concentration and mixed using a vortex mixer. After the solid was dissolved completely, the solution was subpackaged into 4 mL vials and stored at refrigerated condition (2-8° C.) until use.
(§4) Experimental animals: Balb/c nude mice (male, six weeks old).
19 days after MDA-MB-231 cells were implanted, the tumor size reached about 617 mm^3. The mice bearing the tumor were grouped and administered. The groups of II1E-01.HCl were administered once every other day (QOD), and the solvent control group was administered with the solvent control solution. After completion of the experiment, the tumor weight and the inhibition rate were calculated, and the results are summarized in Table 6. The high and middle dosage groups have significant inhibitory activities against the growth of MDA-MB-231 xenograft, and the effect depends on the amount obviously.
The tumor in this experiment had been allowed to grow to reach a relative bigger size before drug administration (the tumor size before drug administration was about 600 mm^3 while generally the tumor size was only 200-300 mm^3 before drug administration), which corresponds to a middle- or advanced-stage cancer.

The test system of assay [2] is human-derived colon carcinoma HCT-116 xenograft. The experiment in a line: Therapeutic effect against HCT-116 xenograft in nude mice. The class given is in vivo, Balb/c nude mice. The note with it: QOD × 14 d. As for the experimental part:
as §1, §2, §3, §4
HCT116 cells were in vitro cultured to be proliferated. The cells in the log phase of growth were collected, resuspended in RPMI-1640 serum-free medium, and then implanted subcutaneously into the axilla of the right forelimb of nude mice. After 14 days, the tumor size reached about 470 mm^3. The mice bearing the tumor were grouped by randomized block method according to the tumor size into 3 groups, including the group of solvent control and groups of 4 mg/kg and 6 mg/kg dosages of the testing compound II1E-01.HCl. In the solvent control group, glucose injection was administered intravenously at tail once every other day (QOD). The testing compound II1E-01.HCl was administered intravenously (iv) at tail once every other day (QOD). The animals were given the drugs for 14 days, during which, the growth of tumor and the body weight of the mice were observed.
After continuously administering for 14 days (the 28th day after the implantation), the tumor weight and inhibition rate were calculated, and results are listed in Table 8.

Assay [3] deals with HeLa human cervical carcinoma cell line. The experiment in a line: In vitro antitumor activity assay (SRB), HeLa. The assay is classed as cell-based. The note with it: read-out: IC50, inhibitory activity on cell proliferation of HeLa cell line. The method, boiled down:
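Log-phase cells attached 24 h, then exposed in triplicate to compounds at 10 μM–0.1 nM in saline for 72 h at 37 °C in RPMI-1640. TCA-fixed, SRB-stained, A515 read; percent inhibition versus saline control, IC50 fitted.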

For `C[C@]12CC[C@H](OC(=O)NC3CCNCC3)C[C@H]1CC[C@@H]1[C@@H]2CC[C@]2(C)[C@@H](c3ccc(=O)oc3)CC[C@]12O.Cl` [II1E-01•HCl], the “Inhibition Rate (%)” value in assay [1] (2 mg/kg iv) turned out to be 16.36%; in assay [1] (4 mg/kg iv), 33.99%; in assay [1] (6 mg/kg iv) it was 52.23%; in assay [2] (4 mg/kg iv, 4 mg/kg) it was 36.82%; in assay [2] (4 mg/kg iv, listed as II1E-01.HCl, 4 mg/kg), 36.82%; in assay [2] (6 mg/kg iv, 6 mg/kg), 67.33%. Further, the “Inhibition Rate (%)” value in assay [2] (6 mg/kg iv, listed as II1E-01.HCl, 6 mg/kg) worked out at 67.33%. Also, the “Tumor Weight(g) Mean ± SE” value in assay [1] (2 mg/kg iv) was determined as 2.6063 ± 0.2731 g; in assay [1] (4 mg/kg iv) it was 2.0569 ± 0.1340 g; in assay [1] (6 mg/kg iv), 1.4887 ± 0.1763 g; in assay [2] (4 mg/kg iv), 0.8017 ± 0.0480 g; in assay [2] (6 mg/kg iv), 0.4147 ± 0.0212 g.
In the case of `C[C@]12CC[C@H](O)C[C@H]1CC[C@@H]1[C@@H]2CC[C@]2(C)[C@@H](c3ccc(=O)oc3)CC[C@]12O` [bufalin, reference compound], in assay [3], the IC50 was found to be 7.27 nM.
